Measurements as given in US20220241409A1, “WATER SOLUBLE ADJUVANT AND COMPOSITION CONTAINING SAME” (Sumitomo Dainippon Pharma Co., Ltd., priority 2019, published 2022).

How the values were obtained:
[1] = tested on: HLA-A*02:01 transgenic mouse; test: In vivo adjuvant activity, CTL induction with vaccine a, IFNγ ELISPOT (Test 6); conditions: for CTL counts responsive to Peptide SEQ ID No. 1 (IFNγ-producing cells) / CTL counts responsive to Peptide SEQ ID No. 5 (IFNγ-producing cells): compound added to vaccine a versus vaccine a, intradermal, Example 3 32.5 ng per body, Reference example 14 17.5 ng per body, one week later
Method: The in vivo adjuvant activity of the compound of Example 3 and the compound of Reference example 14 was evaluated in the following procedure. To a cocktail vaccine comprising Compound of formula 4 prepared in Reference example 9 and Peptide SEQ ID No. 3 prepared in Reference example 3 with a preliminarily-emulsified composition (hereinafter, referred to as “vaccine a”) was added the compound prepared in Example 3 or the compound prepared in Reference example 14 respectively to prepare each vaccine. The vaccine was administered to a HLA-A*02:01 transgenic mouse, and the adjuvant activity of each vaccine was evaluated by the method of testing antigen-specific cytotoxic T-lymphocyte (CTL) induction. The RMFPNAPYL (SEQ ID No. 1) in Compound of formula 4 and VLDFAPPGA (SEQ ID No. 5) in Peptide SEQ ID No. 3 correspond to antigen peptides derived from an HLA-A*02:01-restricted WT1 protein.
HLA-A*02:01 transgenic mouse (C57BL/6CrHLA-A2.1DR1) lacks mouse MHC, and instead expresses a chimeric HLA of a human MHC (HLA-A*02:01) and a mouse MHC (H-2D^b), and HLA-DRB1*01:01. The mouse can evaluate the pharmacological activity of immunotherapeutic agents including a peptide which induces CTLs in HLA-A*02:01-positive human (Eur J Immunol. 2004; 34: 3060-9). In addition, the mouse can also evaluate the induction of a helper peptide which can bind to a human HLA-DRB1*01:01 to induce a helper T-cell, and the enhancing effect for inducing CTLs.
The character for inducing CTLs specific to the antigen peptide (SEQ ID No. 1 or SEQ ID No. 5) by vaccine a was evaluated by measuring whether IFNγ can be produced upon stimulation of splenocytes from the mouse with the peptide. In addition, the character for exerting in vivo adjuvant activity by the compound in Example 3 or the compound in Reference example 14 was evaluated by comparing the number of CTLs induced by vaccine a and the number of CTLs induced by the vaccine prepared by adding the compound prepared in Example 3 or the compound in Reference example 14 to vaccine a, and checking presence or absence of the increase on the number.
0.312 g of sodium dihydrogen phosphate dihydrate was dissolved in 80 g of water for injection. 14.0 g of ethyl oleate, 14.0 g of octyldodecyl myristate, 2.0 g of sorbitan monooleate, 2.8 g of glyceryl monooleate, 0.4 g of polyoxyethylene hydrogenated castor oil 20, and 0.4 g of glycerin were mixed. 2.354 mL of the mixture (corresponding to 2.077 g) was put into a test tube, and 0.396 mL of the aqueous sodium dihydrogen phosphate (corresponding to 0.396 g) was gradually added into the test tube which was being stirred with a mixer (ULTRA-TURRAX T10, IKA, or Touch Mixer MT-51, Yamato Scientific) to emulsify the mixture in the test tube. The obtained emulsion was referred to as preliminary emulsified composition. The amount of the preparation was adjusted as appropriate.
Compound of formula 4 and Peptide SEQ ID No. 3 were dissolved in DMSO, and then diluted with water for injection to concentrations of Compound of formula 4 of 3 mg/ml and Peptide of SEQ ID No. 3 of 2.25 mg/ml. The diluted peptide solution was mixed and emulsified with an equal volume of the above preliminary emulsified composition to prepare vaccine a. Vaccine a was injected to mice intradermally at the tail base area in an amount for administering 300 μg of Compound of formula 4 per body and 225 μg of Peptide SEQ ID No. 3 per body. Or, in the step of preparing vaccine a, the compound prepared in Example 3 was added to the diluted peptide solution to prepare a vaccine, and the prepared vaccine was injected to mice intradermally at the tail base area in an amount for administering 300 μg of Compound of formula 4 per body, 225 μg of Peptide SEQ ID No. 3 per body, and 32.5 ng of the compound prepared in Example 3 per body. […]

[2] = tested on: HLA-A*02:01 transgenic mouse; test: In vivo adjuvant activity, CTL induction with vaccine c, IFNγ ELISPOT (Test 9); conditions: 32.5 ng per body added to vaccine c versus no compound; twice, one week interval
Method: The in vivo adjuvant activity of the compounds prepared in Example 3 was evaluated in the following procedure. To a vaccine comprising Peptide SEQ ID No. 1 prepared in Reference example 1 with a preliminarily-emulsified composition (hereinafter, referred to as “vaccine c”) was added the compound prepared in Example 3 to prepare a vaccine. The vaccine was administered to a HLA-A*02:01 transgenic mouse, and the adjuvant activity of the vaccine was evaluated by the method of testing antigen-specific CTL induction.
Specifically, Peptide SEQ ID No. 1 was dissolved in DMSO, and then diluted with water for injection to concentrations of Peptide SEQ ID No. 1 of 2 mg/mL. The diluted peptide solution was mixed and emulsified with an equal volume of a preliminarily-emulsified composition to prepare vaccine c. Vaccine c was injected to mice intradermally at the tail base area in an amount for administering 200 μg of Peptide SEQ ID No. 1 per body. Or, in the step of preparing vaccine c, the compound prepared in Example 3 was added to the diluted peptide solution to prepare a vaccine, and the prepared vaccine was injected to mice intradermally at the tail base area in an amount for administering 200 μg of Peptide SEQ ID No. 1 per body, and 32.5 ng of the compound prepared in Example 3 per body. […] Then, after removal of the supernatant from the wells, stained spots on the ELISPOT plate were counted.

[3] = Example 3 32.5 ng per body versus Reference example 14 17.5 ng per body, added to vaccine

SMILES | CTL counts responsive to Peptide SEQ ID No. 1 (IFNγ-producing cells) [1] | CTL counts responsive to Peptide SEQ ID No. 5 (IFNγ-producing cells) [1] | increase of the CTL counts (Peptide SEQ ID No. 1) compared with Reference example 14 [1, 3] | increase of the CTL counts (Peptide SEQ ID No. 5) compared with Reference example 14 [1, 3] | CTL counts responsive to Peptide of SEQ ID No. 1 [2]
CCCCOc1nc(N)c2[nH]c(=O)n(Cc3ccc(CNC)cc3)c2n1 [Reference example 14, reference compound] | increased | increased | – | – | –
CCCCOc1nc(N)c2[nH]c(=O)n(Cc3ccc(CN(C)CCOCCOCCOCCOCCO)cc3)c2n1 [Example 3, 6-amino-2-butoxy-9-{[4-(16-hydroxy-2-methyl-5,8,11,14-tetraoxa-2-azahexadecan-1-yl)phenyl]methyl}-7,9-dihydro-8H-purin-8-one] | increased | increased | more | more | more
